Experimental data as given in patent US10046050B2, “Targeting immunotherapy for amyloidosis” (UNIVERSITY OF TENNESSEE RESEARCH FOUNDATION, priority 2014, dated 2018).
Like-named read-outs stand apart in the source and are kept apart here.

Columns and labels:
[1] = system: mAb clones 4, 5, 12, and 13; assay: ELISA capture of negative control biotinylated peptides by plate-adsorbed mAb clones; type: binding, murine; conditions: 100 ng/well
Description: More particularly, 96-well ELISA microplates were coated overnight with the indicated mAbs (500 ng/well), the wells were blocked with PBS/BSA solution before addition of biotinylated p5+14 peptide (100 ng/well). Biotinylated peptides, p5R and p31G (aka p5G) were used as a negative control. Following a wash step, detection of captured peptide was achieved by addition of europium-conjugated streptavidin as described above.

AA amyloid = target: T1, AA amyloid (Mus musculus, UniProt P05367); assay: In vivo pre-targeting of ^125I-11-1F4 to systemic AA amyloid; design: species or system mice; conditions: 24 h post injection of 11-1F4 mAb; peptide given 24 h before mAb
T1 construct: from tissue; host or cells: organs of living H2-L^d-huIL-6 Tg Balb/c mice after AEF injection
T1 sequence (P05367 20-94 limits assumed): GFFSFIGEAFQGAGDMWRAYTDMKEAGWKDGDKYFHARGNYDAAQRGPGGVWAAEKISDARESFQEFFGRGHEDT
Description: Systemic visceral AA amyloidosis was induced in H2-L^d-huIL-6 Tg Balb/c transgenic mice that constitutively express the human interleukin-6 transgene, by iv injection of 10 μg of purified, splenic AA amyloid (amyloid enhancing factor; AEF) in 100 μL of sterile phosphate-buffered saline (PBS). Peptide p66 pre-targeting of ^125I-11-1F4 was evaluated in mice at 3-4 wk post AEF injection when amyloid load was modest.
Three cohorts of 3 mice, each received ˜400 μg of unlabeled peptide p66, and a second group of 3 cohorts were given peptide p5+14 as a control. Twenty-four hours after the peptide injection all mice were administered ˜150 μCi (˜20 μg) of ^125I-11-1F4 IV in the lateral tail vein. One group of p66 mice (n=3) and one group of p5+14 control mice (n=3) were euthanized at 24, 48 and 72 h post injection of 11-1F4 mAb and the organs harvested at necropsy for fixation, followed by microautoradiographic and immunohistochemical analyses.
For autoradiography, 6-μm-thick sections were cut from formalin-fixed, paraffin-embedded blocks, containing tissues from mice that had received […]. The sections were placed on Plus microscope slides (Fisher Scientific), dipped in NTB-2 emulsion (Eastman Kodak), stored in the dark, and developed after a 4 day exposure. Each section was counterstained with hematoxylin and eosin.
Formalin-fixed paraffin embedded tissue sections, from mice treated with p66 peptope or peptide p5+14 were subjected to antigen retrieval using citrate buffer (pH 6; Dako) 30 min at 90° C. The tissue was then blocked with hydrogen peroxide, casein, and avidin and biotin, per manufacturer's instructions. The biotinylated peptide-reactive mAb (clone 12-3 [described above]) was then added (1.6 μg/mL in PBS) an the samples incubated for 2 h at RT, O/N at 4° C., followed by another 2 h period at RT. […]
The presence of macrophages was detected by staining with mAb Iba-1 (1:8000 diln) followed by addition of biotinylated rabbit anti-mouse secondary reagent (Vector Rabbit Elite kit). […]

[2] = system: synthetic and naturally-occurring amyloid samples; assay: Pull down assay of ^125I-labeled peptides; type: binding
Description: To evaluate the binding of p66 and p5+14 to synthetic and naturally-occurring amyloid, peptides p66 or p5+14 were radiolabeled with iodine-125 (I-125, ^125I) using oxidation with chloramine T (1 mg/ml in water freshly made. Free 1-125 was removed from the reaction mixture by size exclusion chromatography using a Sephadex G-25 solid phase and a 0.1% (w/v) gelatin in PBS mobile phase. Fractions of ˜250 μl were collected and the radioactivity in each measured using a gamma counter (Packard Cobra II auto-gamma counter). Peptide fractions with peak radioactivity were pooled and used for the “pull-down” assays.
For the pull down assay, ^125I-labeled peptide binding to murine: (m) AA and wild type (WT) liver homogenates (25 μl); rVλ6Wil (AL), Aβ(1-40) and islet amyloid polypeptide (IAPP) synthetic fibrils (25 μg), and; transthyretin-associated (ATTR), ALκ4-Cab and ALλ1-Ship human amyloid extracts (50 μg). The ^125I-peptides were prepared in PBST (0.15 M NaCl) or PBST with 1 M NaCl. Ten μl (˜5 ng, ˜100,000 counts per min [cpm]) of the ^125I-peptide solution was added to each test sample in a 200 μl volume. The reaction mixtures were rotated for 1 h at RT, then centrifuged twice at 16,000×g for 10 min. After each step the supernatants were removed and collected in test tubes. The pellets, obtained following the second spin were resuspended in PBST. The radioactivity in both the supernatant and pellet samples were measured using a Packard Cobra II auto-gamma counter. The bound peptide, expressed as % total was calculated according to: Bound peptide (% total)=(Pellet cpm)/(Pellet cpm+Supernatant cpm)

[3] = target: T2, human transthyretin (TTR) amyloid-laden tissue (Homo sapiens, UniProt P02766); assay: Pre-targeting immunohistochemistry on ATTR-laden tissue sections; type: binding
T2 construct: from tissue
Description: The pre-targeting efficacy of peptide p5+14 in conjunction with mAb clones 4, 5, 12, or 13 was further evaluated using human ATTR-laden formalin-fixed paraffin embedded tissue sections. More particularly, six micrometer-thick sections, cut from formalin-fixed, paraffin embedded human transthyretin (TTR) amyloid-laden tissue, were subjected to antigen retrieval by incubation with CitraPlus (BioGenex, San Ramon, Calif.) for 30 min at 90° C. Peptide p5+14 was added to the tissue at ˜3 μg/mL (30× molar excess over mAb) and incubated overnight at 4° C. Unbound reagent was removed by washing in PBST for 30 min. Tissues (with or without p5+14) were immunostained with a 3 μg/mL solution of biotinylated anti-peptide mAb (clones 4, 5, 12, or 13). Slides were developed by addition of streptavidin-HRP (Vectastain Elite ABC kit, Vector Labs) followed by 3,3′-diaminobezidene (Vector Labs).
By way of positive control, a biotinylated-p5+14 peptide (without mAb) was used to directly stain TTR amyloid in this tissue (red arrows, below), as described above.
To confirm the presence and distribution of amyloid in the tissue a consecutive slide was stained with Congo red. Briefly, tissues were incubated in Congo red solution (0.8% w/v Congo red, 0.2% KOH w/v in 80% ethanol) for 1 h at RT. Sections were then washed in water and counterstained by suspending in Mayer's hematoxylin for 2 min. […]

mAb 7D8 = assay: Surface plasmon resonance of mAb 7D8 binding to amino-coupled peptopes; conditions: 7D8 2.7 nM; for Kd: read-out: KD
Description: Analyses were performed using a BIAcore X surface plasmon resonance instrument (GE Healthcare) and all reagents were obtained from GE Healthcare. For chip preparation, the peptides were attached to CM-5 chips using the amino-coupling method supplied with the instrument software. Briefly, chips were activated by injection (35 μL) of a mixture of ECD/NHS at a flow rate of 5 μL/min. Immediately thereafter, 35 μL of the test peptide (peptope p75, p76, p77, or p78), diluted to 1 μg/mL in NaOAc buffer, pH 5.5, was injected. After peptide coupling, the remaining active groups on the chip were blocked by injection of 35 μL of 1 M ethanolamine-HCl pH 8.5. Test peptides p75, p76, p77, or p78 were coupled to the Fc-1 channel and peptide p5, which served as a control, was coupled to the Fc-2 channel. A sensorgram was initiated on each chip in HBS-EP buffer at 10 μL per min. An initial regeneration step consisting of a 20 μL injection of pH 2.5 glycine buffer was performed and the baseline allowed to equilibrate. Antibody 7D8 was diluted to a stock of 10 μg/mL in HBS-EP buffer which was further diluted to a 0.4 μg/mL (˜2.7 nM) working dilution immediately before injection. The antibody was injected (50 μL) and the data collected for 200 seconds using a delayed wash cycle. The chip was subjected to a regeneration step before the next test injection. Binding data were extracted from the sensorgram, aligned, and analyzed using the BIAevaluation software by fitting to the following binding models (i) Langmuir, (ii) Langmuir with mass transfer, and (iii) Interaction of a bivalent analyte [A+B→AB; AB+B→AB2].

| Substance | Rmax (RU) (mAb 7D8; Bivalent Analyte) | ka1 (mAb 7D8; Bivalent Analyte) [M⁻¹ s⁻¹] | ka2 (1/RUs) (mAb 7D8; Bivalent Analyte) | kd1 (mAb 7D8; Bivalent Analyte) [s⁻¹] | kd2 (mAb 7D8; Bivalent Analyte) [s⁻¹] | KA (mAb 7D8; Langmuir with Mass Transfer) [M⁻¹] | Req (RU) (mAb 7D8; Langmuir with Mass Transfer) | Rmax (RU) (mAb 7D8; Langmuir with Mass Transfer) | ka (mAb 7D8; Langmuir with Mass Transfer) [M⁻¹ s⁻¹] | kd (mAb 7D8; Langmuir with Mass Transfer) [s⁻¹] | kobs (mAb 7D8; Langmuir with Mass Transfer) [s⁻¹] | kt (RU/(M*s)) (mAb 7D8; Langmuir with Mass Transfer) | Kd (mAb 7D8; Langmuir with Mass Transfer) [nM] | KA (mAb 7D8; Langmuir) [M⁻¹] | Req (RU) (mAb 7D8; Langmuir) | Rmax (RU) (mAb 7D8; Langmuir) | ka (mAb 7D8; Langmuir) [M⁻¹ s⁻¹] | kd (mAb 7D8; Langmuir) [s⁻¹] | kobs (mAb 7D8; Langmuir) [s⁻¹] | Kd (mAb 7D8; Langmuir) [nM] | other results |
| --- | --- | --- | --- | --- | --- | --- | --- | --- | --- | --- | --- | --- | --- | --- | --- | --- | --- | --- | --- | --- | --- |
| GAQGAQAGQAGQAQGAQGAQAGQAGQ (GAQGAQAGQAGQAQGAQGAQAGQAGQ; Peptide p5G) |  |  |  |  |  |  |  |  |  |  |  |  |  |  |  |  |  |  |  |  | capture of biotinylated peptide by adsorbed mAb clones [1]: not captured |
| KAQKAQAKQAKQAQKAQKAQAKQAKQAQKAQKAQAKQAKQ (KAQKAQAKQAKQAQKAQKAQAKQAKQAQKAQKAQAKQAKQ; Peptide p5+14) |  |  |  |  |  |  |  |  |  |  |  |  |  |  |  |  |  |  |  |  | co-localization of ^125I-11-1F4 with AA amyloid after peptide pre-targeting (AA amyloid): little evidence of ^125I-11-1F4 co-localized with the amyloid; binding of ^125I-peptide to amyloid samples ([2]; 0.15 M NaCl): bound equally well; binding of ^125I-peptide to amyloid samples ([2]; 1.0 M NaCl): bound equally well; staining of ATTR amyloid by directly biotinylated peptide (no mAb) ([3]; compared with Congo red): co-localizes with amyloid deposits; staining of ATTR amyloid, non-biotinylated peptide pre-targeting then biotinylated anti-peptide mAb ([3]; peptide ˜3 μg/mL, mAb clones 4, 5, 12, or 13 at 3 μg/mL): the amyloid was readily visualized |
| KAQKAQAKQAKQAQKAQKAQAKQAKQGGGHEDT [p76, KAQKAQAKQAKQAQKAQKAQAKQAKQGGGHEDT] | 861 | 609000 | 2.38E−03 1/RUs | 0.0736 | 0.0774 | 6.33e+08 | 191 | 302 | 8.96e+06 | 0.0137 | 0.0372 | 1.43E+09 RU/(M*s) | 1.58 | 4.43e+08 | 191 | 351 | 2.95e+06 | 0.00667 | 0.0146 | 2.26 |  |
| KAQKAQAKQAKQAQKAQKAQAKQAKQGPGHEDT [p77, KAQKAQAKQAKQAQKAQKAQAKQAKQGPGHEDT] | 5.43E+03 | 44600 | 3.76E−05 1/RUs | 0.0295 | 0.0224 | 3e+08 | 192 | 429 | 1.96e+08 | 0.653 | 1.18 | 4.57E+08 RU/(M*s) | 3.33 | 1.04e+07 | 223 | 8.16E+03 | 51900 | 0.00498 | 0.00512 | 96 |  |
| KAQKAQAKQAKQAQKAQKAQAKQAKQVTVHEDT [p78, KAQKAQAKQAKQAQKAQKAQAKQAKQVTVHEDT] | 9.16E+03 | 63700 | 1.10E−07 1/RUs | 0.00972 | 2.63e-05 | 6.85e+08 | 326 | 502 | 1.29e+07 | 0.0188 | 0.0536 | 1.65E+09 RU/(M*s) | 1.46 | 4.05e+08 | 331 | 633 | 2.42e+06 | 0.00598 | 0.0125 | 2.47 |  |
| RAQRAQARQARQAQRAQRAQARQARQ (RAQRAQARQARQAQRAQRAQARQARQ; Peptide p5R) |  |  |  |  |  |  |  |  |  |  |  |  |  |  |  |  |  |  |  |  | capture of biotinylated peptide by adsorbed mAb clones [1]: not captured |
